According to patent US12582693B2, “Glutathione trisulfide (GSSSG) in neuroprotection” (The General Hospital Corporation, priority 2020, dated 2026):

Assays:
[1] = test system: SH-SY5Y cells; assay: MPP+-induced SH-SY5Y cell death, cell viability by crystal violet assay; format: cell-based; conditions: MPP+ 2 mM, DMEM/F12 (20% FBS), 37° C., 24 h
Protocol: The effects of GSSSG on 1-methyl-4-phenylpyridinium (MPP+)-induced neuronal (SH-SY5Y cell) death were evaluated. MPP+-poisoning is an in vitro model of Parkinson's disease.
SH-SY5Y cells were incubated with or without MPP+ (2 mM) in DMEM/F12 (20% FBS) with or without drugs at 37° C. for 24 h. Cell viability was measured using the crystal violet assay.

[2] = test system: mice subjected to SCI; assay: Murine model of spinal cord ischemia (SCI) with delayed paraplegia; motor function by Basso Mouse Scale and survival after preconditioning; format: in vivo; conditions: preconditioning 200 mg/kg IP daily for 4 days in DMSO, vs DMSO alone
Protocol: Briefly, under anesthesia and mechanical ventilation via endotracheal intubation, SCI was induced by placing the first clip on the aortic arch between the left common carotid artery and the left subclavian artery and the second clip on the origin of the left subclavian artery. The completeness of the occlusion was ascertained by an immediate and sustained loss of any detectable pulse pressure in the femoral artery pressure tracing. After 5 min of ischemia, the clips were removed, and the chest was closed in layers. At 10 minutes of reperfusion, the arterial catheter was removed, incisions were closed, and animals were allowed to recover from anesthesia. Temperature of erector spinae muscle was monitored and maintained at 37.5° C. during whole surgery until recovery from anesthesia. In sham-operated mice, whole surgical procedure was performed as described, but no clips were applied. Motor function was quantified serially at pre-SCI, 24, 48, and 72 h after spinal cord ischemia by the Basso Mouse Scale (BMS) (Basso et al., 2006; Kakinohana et al., 2011). The maximum deficit is indicated by a score of 0. Although BMS score<6 (0 to 5) indicates paraplegia, BMS score>6 (6 to 9) indicates ability to walk.
To examine preventive effects of GSSSG against neurofunctional deficit after SCI, mice were subjected to preconditioning with GSSSG treatment before induction of SCI. […]

Row | Structure (SMILES) | Protection from MPP+-induced cell death (cell viability) [1] | Motor function (Basso Mouse Scale, BMS) / paraplegia after SCI ([2]; SCI 24 h after last administration, BMS up to 72 h) | Survival rate of mice after SCI [2]
1 | [Na+].[Na+].[S-2] [Na2S, reference compound] | but not Na2S, protected | – | –
2 | N[C@@H](CCC(=O)N[C@@H](CSSSC[C@H](NC(=O)CC[C@H](N)C(=O)O)C(=O)NCC(=O)O)C(=O)NCC(=O)O)C(=O)O [GSSSG, Glutathione trisulfide] | protective effect | prevented motor functional deficit and paraplegia | did not change survival rate
